From patent US20190133985A1 (Orbus Therapeutics, Inc., priority 2016, published 2019)
Counter-ions that a name gives are not always drawn.

Experiments:
U87MG cells = experiment: Exon-Seq mutation frequency in glioblastoma cell line model (nucleotides susceptible to TMZ-induced mutations); type: cell-based, human
Procedure: Preliminary data analysis was performed to identify nucleotides susceptible to temozolomide (TMZ)-induced mutations per TMZ concentration. Mutation frequency results were analyzed for 13,040 nucleotide polymorphisms across 6,455 genes that have been previously identified as potentially cancer related based on their description in the Catalogue of Somatic Mutations in Cancer (COSMIC) database.
Statistical analysis of the Exon-Seq data was performed using JMP™ Software. The mutation frequencies were analyzed using ANOVA analysis of variance and the Student's t-test.

MUC16 gene = experiment: Exon-Seq frequency of T/A mutation at chr19: 9,071,763 in U87MG cells; conditions: for mutation rate: TMZ EC-50 for 3 days then eflornithine 200 μM
GPR116 gene = experiment: Exon-Seq frequency of C/T mutation at chr6: 46,867,771 in U87MG cells; conditions: for mutation rate: TMZ EC-20 for 3 days then eflornithine 100 μM
ADAM 32 gene = experiment: Exon-Seq frequency of G/A mutation at chr8: 38,964,647 in U87MG cells; conditions: for mutation rate: TMZ EC-50 for 3 days then eflornithine 200 μM
TP53BP1 gene = experiment: Exon-Seq frequency of C/T mutation at chr15: 43,762,196 in U87MG cells; conditions: for mutation rate: TMZ EC-50 for 3 days then eflornithine 200 μM
low-grade gliomas = conditions: adjuvant temozolomide chemotherapy; TMZ-induced mutagenesis signature in RB and AKT-mTOR pathways; cited from earlier work

For NCCCC(N)(C(=O)O)C(F)F (racemic) [eflornithine, D,L-2-(difluoromethyl) ornithine monohydrochloride monohydrate], the “effect on mutation rate compared to the TMZ-treated cells, combined data set (ANOVA, Student's t-test)” value (U87MG cells; sequential DFMO 100 μM after TMZ EC-20) was “significant decrease”, the “effect on mutation rate compared to the TMZ-treated cells, combined data set (ANOVA, Student's t-test)” value (U87MG cells; sequential eflornithine 50 μM after TMZ EC-10) was “significant decrease” and the “effect on mutation rate compared to the TMZ-treated cells, combined data set (ANOVA, Student's t-test)” value (U87MG cells; sequential eflornithine 200 μM after TMZ EC-50) was “significant decrease”. The mutation rate (MUC16 gene; 7 days) was 49.1%, the mutation rate (MUC16 gene; 14 days) was 47.3% and the mutation rate (GPR116 gene; 7 days) was 60.6%. For the same compound, the mutation rate (GPR116 gene; 14 days) was 45.0%, the mutation rate (ADAM 32 gene; 7 days) was 33.3% and the mutation rate (ADAM 32 gene; 14 days) was 43.2%. For the same compound, the mutation rate (TP53BP1 gene; 7 days) was 29.7% and the mutation rate (TP53BP1 gene; 14 days) was 38.4%.
In the case of Cn1nnc2c(C(N)=O)ncn2c1=O [TMZ, 4-methyl-5-oxo-2,3,4,6,8-pentazabicyclo[4.3.0]nona-2,7,9-triene-9-carboxamide], the “Number of nucleotides showing higher than 15% mutation frequency increase due to TMZ treatment” value (U87MG cells; All three concentrations) is reported as 97, the “Number of nucleotides showing higher than 15% mutation frequency increase due to TMZ treatment” value (U87MG cells; At least one concentration) is reported as 876 and the “Mean Mutation Frequency” value (U87MG cells; TMZ EC10, T = 3 days) is reported as 57%. The “Number of nucleotides showing higher than 15% mutation frequency increase due to TMZ treatment” value (U87MG cells; TMZ EC10, 13,040 nucleotide polymorphisms across 6,455 genes) was 424, the “Number of nucleotides showing higher than 15% mutation frequency increase due to TMZ treatment” value (U87MG cells; TMZ EC20) was 436 and the “Mean Mutation Frequency” value (U87MG cells; TMZ EC20, T = 3 days) was 59%. For the same compound, the “Number of nucleotides showing higher than 15% mutation frequency increase due to TMZ treatment” value (U87MG cells; TMZ EC50) was 417, the “Mean Mutation Frequency” value (U87MG cells; TMZ EC50, T = 3 days) was 60% and the “effect on mutation frequency, combined data set (ANOVA, Student's t-test)” value (“effect on mutation frequency” below) (U87MG cells; TMZ EC-10) was “significant increase”. The “effect on mutation frequency” value (U87MG cells; TMZ EC-20) was “significant increase”, the “effect on mutation frequency” value (U87MG cells; TMZ EC-50) was “significant increase” and the mutation frequency (MUC16 gene; TMZ EC-50, day 3) was 64.0%. For the same compound, the “patients whose tumors showed hypermutation (alternative evolutionary path to high-grade glioma)” value (low-grade gliomas) was 6 of 10, the mutation frequency (GPR116 gene; TMZ EC-20, day 3) was 69.6% and the mutation frequency (ADAM 32 gene; TMZ EC-50, day 3) was 63.6%. For the same compound, the mutation frequency (TP53BP1 gene; TMZ EC-50, day 3) was 62.5%.
